Results: PubChem BioAssay AID1259407 (Chemical Carcinogenesis Research Information System (CCRIS), 2018)
The source made the active and inactive calls. How the calls were made is not given here.

Test system: CCRIS mutagenicity, Ames/micronucleus/aberration tests
Test: CCRIS mutagenicity studies

Row | SMILES | mutagenic call (Test System: AMES SALMONELLA TYPHIMURIUM, Strain/Indicator: TA97A, Metabolic Activation: NONE, Method: STANDARD PLATE) | mutagenic call (Test System: AMES SALMONELLA TYPHIMURIUM, Strain/Indicator: TA97A, Metabolic Activation: PLANT, HOMOGENATE, S-14, Method: STANDARD PLATE) | mutagenic call (Test System: AMES SALMONELLA TYPHIMURIUM, Strain/Indicator: TA97A, Metabolic Activation: S-9, Method: STANDARD PLATE) | mutagenic call (Test System: AMES SALMONELLA TYPHIMURIUM, Strain/Indicator: TA98, Metabolic Activation: NONE, Method: PREINCUBATION) | mutagenic call (Test System: AMES SALMONELLA TYPHIMURIUM, Strain/Indicator: TA98, Metabolic Activation: NONE, Method: STANDARD PLATE) | mutagenic call (Test System: AMES SALMONELLA TYPHIMURIUM, Strain/Indicator: TA98, Metabolic Activation: PLANT, HOMOGENATE, S-14, Method: STANDARD PLATE) | mutagenic call (Test System: AMES SALMONELLA TYPHIMURIUM, Strain/Indicator: TA98, Metabolic Activation: S-9, Method: STANDARD PLATE) | mutagenic call (Test System: AMES SALMONELLA TYPHIMURIUM, Strain/Indicator: TA100, Metabolic Activation: NONE, Method: PREINCUBATION) | mutagenic call (Test System: AMES SALMONELLA TYPHIMURIUM, Strain/Indicator: TA100, Metabolic Activation: NONE, Method: STANDARD PLATE) | mutagenic call (Test System: AMES SALMONELLA TYPHIMURIUM, Strain/Indicator: TA100, Metabolic Activation: PLANT, HOMOGENATE, S-14, Method: STANDARD PLATE) | mutagenic call (Test System: AMES SALMONELLA TYPHIMURIUM, Strain/Indicator: TA100, Metabolic Activation: S-9, Method: STANDARD PLATE) | mutagenic call (Test System: AMES SALMONELLA TYPHIMURIUM, Strain/Indicator: TA1535, Metabolic Activation: NONE, Method: STANDARD PLATE) | mutagenic call (Test System: AMES SALMONELLA TYPHIMURIUM, Strain/Indicator: TA1535, Metabolic Activation: PLANT, HOMOGENATE, S-14, Method: STANDARD PLATE) | mutagenic call (Test System: AMES SALMONELLA TYPHIMURIUM, Strain/Indicator: TA1535, Metabolic Activation: S-9, Method: STANDARD PLATE) | mutagenic call (Test System: E. COLI, Strain/Indicator: WP2 UVRA, Metabolic Activation: NONE, Method: FLUCTUATION TEST)
1 | CCOP(=S)(OCC)SCSCC | inactive; negative | inactive; negative | inactive; negative | inactive; negative | inactive; negative | inactive; negative | inactive; negative | inactive; negative | inactive; negative | inactive; negative | inactive; negative | inactive; negative | inactive; negative | inactive; negative | 
2 | CCCCCOC(=O)NO |  |  |  |  |  |  |  |  |  |  |  |  |  |  | active; positive
